These results are taken from PubChem BioAssay (NCI).

Among the test systems are UACC-62 melanoma; UO-31 renal; UACC-257 melanoma; NCI-H226 lung; ACHN renal; DU-145 prostate; 786-0 renal; K-562 leukemia; IGROV1 ovarian; LOX IMVI melanoma.
What all share (assay): NCI-60 cell line screen, 48 h

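Tested at 5 concentrations; 48 h exposure; 96-well plates; endpoints linearly interpolated, else capped at highest concentration. At the GI50, growth is halved. Definition used: TGI = concentration required for complete inhibition of growth.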

For `CCOc1ccc2ccccc2c1NC1=NCCO1`, the TGI in the assay on UACC-62 melanoma was above 100 µM; in the assay with UO-31 renal, 64.7 µM; in the assay with UACC-257 melanoma it was above 100 µM; in the assay with NCI-H226 lung, 85.4 µM; in the assay on ACHN renal, above 100 µM; in the assay with DU-145 prostate, above 100 µM. The values for the TGI in the assay on 786-0 renal, in the assay on K-562 leukemia and in the assay with IGROV1 ovarian were above 100 µM, 61.3 µM and above 100 µM, respectively.
For `COc1cc(C2CC(c3cccc(Nc4ccncc4)c3)=NN2c2cc(Cl)cc(Cl)c2)cc(OC)c1OC` (stereo not drawn), the GI50 with UACC-62 melanoma was 1.69 µM; in the assay on UO-31 renal, 1.44 µM; in the assay on ACHN renal it was 1.66 µM; with DU-145 prostate it was 1.68 µM; in the assay with IGROV1 ovarian it was 1.69 µM. Moreover, the TGI with UACC-62 melanoma came out at 3.18 µM; with UO-31 renal, 2.79 µM; in the assay with ACHN renal, 3.03 µM; in the assay with DU-145 prostate, 3.08 µM; with IGROV1 ovarian it was 3.25 µM.
With `CCOc1ccc(N2C(=O)C3c4[nH]c5ccccc5c4C4CCC(C(C)(C)C)CC4C3C2=O)cc1` (stereo not drawn), the TGI in the assay on UACC-62 melanoma, in the assay with UO-31 renal, in the assay with UACC-257 melanoma, in the assay on NCI-H226 lung, in the assay with ACHN renal and with 786-0 renal was above 100 µM throughout. Moreover, the TGI with K-562 leukemia and in the assay on IGROV1 ovarian was above 100 µM in each case.
Take `O=C(CCCN1CCC2(CC1)C(=O)NC(=O)N2c1ccccc1)c1ccc(F)cc1`: the TGI in the assay with UACC-62 melanoma, in the assay with UO-31 renal, with LOX IMVI melanoma, with UACC-257 melanoma, with NCI-H226 lung and in the assay on ACHN renal was above 100 µM in each case. Also, the TGI with DU-145 prostate, in the assay with 786-0 renal and in the assay with IGROV1 ovarian was above 100 µM in each case.
With `O=C(Cc1ccccc1)NN1C(=O)C(Cl)C1c1cccc(O)c1` (stereo not drawn), the TGI in the assay with UO-31 renal turned out to be 29.4 µM; in the assay on LOX IMVI melanoma, 27.9 µM; in the assay with UACC-257 melanoma, 35 µM; in the assay with NCI-H226 lung it was 43.4 µM; in the assay with ACHN renal it was 31 µM; with 786-0 renal it was 31.5 µM. Further, the TGI in the assay on K-562 leukemia was 34.7 µM; in the assay with IGROV1 ovarian, 34.8 µM.
As for `O=C1C=C(N2CCCC2)C=C(N2CCCC2)C1`, the TGI in the assay with UACC-62 melanoma, with UO-31 renal, in the assay with LOX IMVI melanoma, with UACC-257 melanoma, with NCI-H226 lung and in the assay with ACHN renal was above 100 µM each time. Further, the TGI in the assay with 786-0 renal, in the assay on K-562 leukemia and in the assay with IGROV1 ovarian was above 100 µM in each case.
For the molecule `CN1CCN(c2nc3ccccc3nc2C(=O)c2ccc(Cl)cc2)CC1`, the TGI in the assay on UACC-62 melanoma was 76.2 µM; in the assay with UO-31 renal it was above 100 µM; in the assay with LOX IMVI melanoma it was above 100 µM; with UACC-257 melanoma, above 100 µM; with ACHN renal, above 100 µM; in the assay with DU-145 prostate, above 100 µM. For the same molecule, the TGI in the assay on 786-0 renal, in the assay on K-562 leukemia and in the assay with IGROV1 ovarian was above 100 µM throughout.
Consider `O=C1CC2CC=C[C@H]3c4cc5c(cc4C(=O)N1C23)OCO5` (stereo partly drawn), for which the TGI in the assay on UACC-62 melanoma, in the assay with UO-31 renal, with LOX IMVI melanoma, in the assay on UACC-257 melanoma, in the assay with NCI-H226 lung and in the assay with ACHN renal was above 50 µM throughout. The TGI with 786-0 renal, with K-562 leukemia and with IGROV1 ovarian was above 50 µM throughout.
As to `Cc1cc(C)c(S(=O)(=O)N[C@@H](/C=C(\Br)CO)C(C)C)c(C)c1`, the TGI with UACC-62 melanoma was 28.2 µM; in the assay on UO-31 renal it was above 100 µM; in the assay on LOX IMVI melanoma, 36.3 µM; in the assay with UACC-257 melanoma, 54.6 µM; in the assay on ACHN renal it was above 100 µM; with DU-145 prostate, above 100 µM. Besides, the TGI in the assay with 786-0 renal was above 100 µM; in the assay on K-562 leukemia it was 50.4 µM; in the assay on IGROV1 ovarian, above 100 µM.
As for `COc1ccc(NC(=O)CC(=O)n2nc(C)c(N=Nc3ccc(C)c(C)c3)c2C)cc1`, the TGI is above 100 µM in the assay on UACC-62 melanoma; 54.8 µM in the assay on UO-31 renal; above 100 µM with LOX IMVI melanoma; above 100 µM in the assay on NCI-H226 lung; above 100 µM in the assay with ACHN renal; above 100 µM in the assay with DU-145 prostate. Also, the TGI in the assay on 786-0 renal and with IGROV1 ovarian was above 100 µM throughout.
Regarding `CC(CC(=O)CO[C@H]1[C@H](O)[C@@H](O)[C@@H](O)[C@@H]2NC(=O)c3c(cc4c(c3O)OCO4)[C@H]21)OC1OC(CO)C(O)C(O)C1O` (stereo partly drawn), the TGI in the assay with UACC-62 melanoma stood at 4.17 µM; with UO-31 renal, 8.11 µM; with LOX IMVI melanoma it was 1.32 µM; in the assay on UACC-257 melanoma it was 6.19 µM; in the assay with NCI-H226 lung, 3.54 µM; in the assay on ACHN renal, 2.6 µM. Also, the TGI in the assay on DU-145 prostate amounted to 0.664 µM; in the assay on 786-0 renal, 2.92 µM; with IGROV1 ovarian, 6.82 µM.
In the case of `Oc1c(C2=NNC(c3cccs3)C2)ccc2ccccc12` (stereo not drawn), the TGI in the assay on UACC-62 melanoma was 30.3 µM; in the assay with UO-31 renal, above 100 µM; in the assay on UACC-257 melanoma it was above 100 µM; in the assay with NCI-H226 lung, above 100 µM; with ACHN renal, above 100 µM; with DU-145 prostate it was 61.7 µM. The TGI is above 100 µM in the assay on 786-0 renal, 44 µM with K-562 leukemia and 95.9 µM with IGROV1 ovarian.
As to `O=C1Nc2cccc3ncn(c23)C2=C1CCCC2`, the TGI in the assay on UACC-62 melanoma, in the assay on UO-31 renal, in the assay on LOX IMVI melanoma, in the assay on UACC-257 melanoma, in the assay on ACHN renal and in the assay with 786-0 renal was above 100 µM in each case. In addition, the TGI with K-562 leukemia and in the assay with IGROV1 ovarian was above 100 µM throughout.
On to `CCCCOC(=O)C(=O)C(CC(C(=O)Cc1ccccc1)c1ccccc1)C(=O)C=C(C)C` (stereo not drawn), for which the TGI in the assay with UACC-62 melanoma, in the assay on UO-31 renal, with LOX IMVI melanoma, in the assay on UACC-257 melanoma, in the assay with NCI-H226 lung and in the assay on ACHN renal was above 100 µM throughout. Moreover, the TGI in the assay on DU-145 prostate, with 786-0 renal and with IGROV1 ovarian was above 100 µM in each case.
